No end group written: not given here.
Legend:
Assay in all cases: biochemical
Format in all cases: binding
A31 (A*3101) = A31 (A*3101) (Homo sapiens, UniProt P04439, A270S/D185E/E176V/E277Q/F33T/G231S/G80R/H175R/I121M/I218V/I322F/K168Q/L300P/L318F/M331R/P217A/Q94H/R138Q/T323A/T345S/T97I/V358M)
HLA-A11 (A*1101) = HLA-A11 (A*1101) (Homo sapiens, UniProt P04439, A114D/D185E/E176A/F33Y/L180Q/S129P/T187R)
A*3301 = A*3301 (Homo sapiens, UniProt P04439, A270S/D185E/E176V/E277Q/E87N/F33T/G231S/H175R/I121M/I218V/I322F/K168Q/K210R/L300P/L318F/M331R/P217A/Q86R/Q94H/R138Q/T323A/T345S/T97I/V358M/Y195H)
HLA-A3.2 (A*0301) = HLA-A3.2 (A*0301) (Homo sapiens, UniProt P04439)
A*6801 = A*6801 (Homo sapiens, UniProt P04439, A269V/D185E/E176V/E277Q/E87N/F33Y/G231S/I121M/I166T/I218V/L180W/L300P/L318F/N151K/P208A/P217A/Q86R/R169H/T345S)

Sequence | IC50 (A31 (A*3101)) [nM] | IC50 (HLA-A11 (A*1101)) [nM] | IC50 (A*3301) [nM] | IC50 (HLA-A3.2 (A*0301)) [nM] | IC50 (A*6801) [nM]
TVSAELPR [Peptide 1556.22] | 11500 | 1880 | 10100 | > 20000 | 214
TVSATQLVK [Peptide 1589.08] | 14600 | 4.4 | > 20000 | 6.5 | 31
VFADLRIVYR [Peptide 78.0073] | 31 | 2090 | 52 | > 20000 | 197
VFCGPANTGK [Peptide 88.0150] | 485 | 1660 | 811 | 1950 | 3000
VIDSPAGQA [Peptide 78.0316] | 407 | 9430 | 913 | 13000 | 983
VSIEWRLRR [Peptide 9017.0088] | 3.1 | 6.9 | 29 | 338 | 131
VSIEWRQRR [Peptide 9017.0089] | 1.5 | 13 | 7.1 | 1350 | 41
VTIKIGGQIR [Peptide 1516.05] | 1140 | 389 | > 20000 | 13000 | 46
VTIRVAGQVK [Peptide 1516.04] | 4600 | 21 | > 20000 | 53 | 52
VTIRVGGQLR [Peptide 1516.07] | 32 | 17 | 9430 | 3260 | 28
VTIYYGVPVWK [Peptide 1525.03] | 534 | 2.5 | > 20000 | 42 | 28
VTIYYGVPVWR [Peptide 1525.04] | 4 | 3 | 51 | 920 | 3.4
VTVKIGGELK [Peptide 1516.03] | > 20000 | 39 | > 20000 | 4110 | 33
VTVKVGGQLR [Peptide 1516.06] | 503 | 199 | 12700 | 8930 | 96
VTVQYDNDKK [Peptide 88.0216] | > 20000 | 100 | > 20000 | 18200 | 1150
VTVYYGIPVWR [Peptide 1525.05] | 3.8 | 17 | 4.5 | 123 | 3.6
VTVYYGVPIWK [Peptide 1525.02] | 150 | 2.3 | 1350 | 18 | 5
VTVYYGVPVWR [Peptide 1525.01] | 19 | 22 | 511 | 560 | 29
VTYNSEVQR [Peptide 1589.29] | 40 | 25 | 152 | 71 | 23
VVLLLVRYK [Peptide 1587.05] | 1.2 | 21 | 21 | 13 | 540
VVPAYNISK [Peptide 88.0397] | > 20000 | 14 | > 20000 | 69 | 992
VVQQLLMGA [Peptide 78.0338] | 2830 | > 20000 | 438 | > 20000 | 1440
VVVKSPNHVK [Peptide 9012.0255] | 7700 | 88 | > 20000 | 256 | 320
VVYRDSIPH [Peptide 78.0275] | > 20000 | 178 | > 20000 | 401 | > 20000

Reference: patent US9340577B2, “HLA binding motifs and peptides and their uses” (priority 1992, dated 2016)
